Values quoted from earlier work in US20230022136A1, “DIFFUSIVITY CONTRAST AGENTS FOR MEDICAL IMAGING” (priority 2020, published 2023).

Settings: attributed to increased hydrogen bonding of the water molecules

increase of the diffusion coefficient of glucose through water: 25-30%
Structure (SMILES): CC(/C=C/C=C(\C)C(=O)[O-])=C\C=C\C=C(C)\C=C\C=C(/C)C(=O)[O-].[Na+].[Na+] [Trans-Sodium crocetinate]
